Experimental data reported in patent US20050019746A1, “Apoptosis-related kinase/GPCRs” (EiRx Therapeutics Limited, priority 2003, published 2005).

System: DU145, PC3, HCT116 cells
Test: Annexin V apoptosis assay (Guava Nexin)
Format: cell-based, human
Details: DU145, HCT116 or PC3, siRNA 50 nM, relative to mock transfected, FIG. 34
Excerpt: Apoptosis or programmed cell death is an important and active regulatory pathway of cell growth and proliferation. Cells respond to specific induction signals by initiating intracellular processes that result in characteristic physiological changes. Among these are externalisation of phosphotidylserine (PS) to the cell surface, cleavage and degradation of specific cellular proteins, compaction and fragmentation of nuclear chromatin and loss of membrane integrity (in late stages). Annexin V is a calcium-dependant phospholipid binding protein with a high affinity for phosphotidyl serine (PS), a membrane component normally localised to the internal face of the cell membrane. Early in the apoptotic pathway molecules of PS are translocated to the outer surface of the cell membrane where Annexin V can readily bind to them.
Annexin V assays are performed using the Guava Nexin Assay, which utilises Annexin V-PE to detect PS on the external membrane of apoptotic cells. The cell impermeant dye 7-AAD is included in the assay as an indicator of membrane structural integrity as it is excluded from live and early apoptotic cells but permeates late stage apoptotic and dead cells. Assays are performed using a Guava Technologies Personal Cytometer and Guava Nexin Kit (catalogue no. 4500-0010, Guava Technologies Inc) using a modification of the manufacturer's protocol, where cells are transfected with siRNA in 24-well plates and assays performed at 24, 48 and 72 hours post-transfection.
Cells (DU145, PC3 & HCT116) are plated at a density of 20000 cells/well in 500 μl medium in 24-well plates and incubated overnight at 37° C. in a humidified atmosphere containing 5% CO2. […]
The 500 μl of media is decanted from the cells and combined with 150 μl of PBS used to wash them. […] Then, 450 μl 1× Nexin Buffer is added to the cells and the cell population analysed using the Guava Personal Cytometer following the manufacturer's instructions. […] The total number of early and late apoptotic cells is measured and the relative number of apoptotic cells calculated. […]

Row | Substance | apoptosis by Annexin V staining
1 | siRNA EKI: siRNA duplex, sense GCACUGGAUCCAAAGCAUGtt, antisense CAUGCUUUGGAUCCAGUGCtt; same in Tables 9 and 11 (sense GCACUGGAUCCAAAGCAUGTT; antisense CAUGCUUUGGAUCCAGUGCTT; chemistry not given here) | undergo apoptosis
2 | siRNA NTKL: siRNA duplex, sense UGUGGAGCUGAUGAAGCACtt, antisense GUGCUUCAUCAGCUCCACAtt; same in Tables 9 and 11 (sense UGUGGAGCUGAUGAAGCACTT; antisense GUGCUUCAUCAGCUCCACATT; chemistry not given here) | undergo apoptosis
3 | siRNA ROCK: siRNA duplex, sense UACAUGCCUGGUGGAGAUCtt, antisense GAUCUCCACCAGGCAUGUAtt; same in Tables 9 and 11 (sense UACAUGCCUGGUGGAGAUCTT; antisense GAUCUCCACCAGGCAUGUATT; chemistry not given here) | undergo apoptosis
